{
  "source": "patent US20060160174A1",
  "about": "“Modified l49-sfv exhibiting increased stability and methods of use thereof” (priority 2002, published 2006)",
  "tested_on": "H3677 melanoma cells",
  "assay": "in vitro cytotoxicity assay with prodrug C-Mel (alamarBlue)",
  "type": "cell-based",
  "conditions": "Homo sapiens",
  "protocol": "H3677 cells were plated into 96 well microtiter plates (5×10^3 cells/well in 100 μl of RPMI 1640 media (Invitrogen) with 10% fetal bovine serum) and allowed to adhere overnight. The cells were treated with FP95, FP990 or FP999 fusion (see Table 2) proteins at 10 nM. […] Melphalan was also added at the same concentrations to cells treated with medium alone. After 1 hour at 37° C. cells were washed three times with medium and incubated for 96 hours at 37° C. The cells were then incubated with 10% alamarBlue™ for 3 hours at 37° C. and excitation was measured in an ELISA plate reader at 570 nm.\nThe cells were treated with 10 nM L49-sFv-bL, unbound material was washed off and serial dilutions of C-Mel were added. C-Mel and the active drug, melphalan, were also applied to cells treated with media alone. Cell viability was measured using the redox indicator alamarBlue™.",
  "data": [
    {"compound": "N[C@@H](Cc1ccc(N(CCCl)CCCl)cc1)C(=O)O", "note": "[melphalan]", "values": [
      {"measurement": "IC50", "result": "~5", "unit": "µM"}
    ]}
  ]
}
